Laboratory results taken from PubChem BioAssay AID1259407 (Chemical Carcinogenesis Research Information System (CCRIS), 2018).
Calls of active or inactive are those of the source. No rule for the calls is given here.

Test system: CCRIS mutagenicity, Ames/micronucleus/aberration tests
Test: CCRIS mutagenicity studies
[1] = Test System: AMES SALMONELLA TYPHIMURIUM, Strain/Indicator: TA100, Metabolic Activation: NONE, Method: STANDARD PLATE
[2] = Test System: AMES SALMONELLA TYPHIMURIUM, Strain/Indicator: TA98, Metabolic Activation: NONE, Method: PREINCUBATION
[3] = Test System: AMES SALMONELLA TYPHIMURIUM, Strain/Indicator: TA100, Metabolic Activation: NONE, Method: PREINCUBATION
[4] = Test System: AMES SALMONELLA TYPHIMURIUM, Strain/Indicator: TA1535, Metabolic Activation: NONE, Method: PREINCUBATION
[5] = Test System: AMES SALMONELLA TYPHIMURIUM, Strain/Indicator: TA1537, Metabolic Activation: NONE, Method: PREINCUBATION

With Cc1cccc(N=Nc2ccc(N(C)C)cc2)c1 the mutagenic call (Test System: AMES SALMONELLA TYPHIMURIUM, Strain/Indicator: TA98, Metabolic Activation: RAT, LIVER, S-9, KC500 OR PHENOBARBITAL, Method: LIQUID SUSPENSION) was “active; positive”, the mutagenic call (Test System: AMES SALMONELLA TYPHIMURIUM, Strain/Indicator: TA98, Metabolic Activation: RAT, LIVER, S-9, N-BENZYLIMIDAZOLE, Method: PREINCUBATION) was “active; positive” and the mutagenic call (Test System: AMES SALMONELLA TYPHIMURIUM, Strain/Indicator: TA100, Metabolic Activation: RAT, LIVER, S-9, KC500 OR PHENOBARBITAL, Method: LIQUID SUSPENSION) was “active; positive”. For the same compound, the mutagenic call (Test System: AMES SALMONELLA TYPHIMURIUM, Strain/Indicator: TA1538, Metabolic Activation: RAT, LIVER, S-9, PHENOBARBITAL, Method: STANDARD PLATE) was “active; positive”, the mutagenic call (Test System: UDS RODENT HEPATOCYTES, Strain/Indicator: THY INCORP (NON-S-PHASE), Method: AUTORADIOGRAPHY) was “active; positive” and the mutagenic call (Test System: UDS RODENT HEPATOCYTES, Strain/Indicator: THY INCORP (NON-S-PHASE), Method: LIQUID SCINTILLATION COUNTING) was “active; positive”.
For CC(=O)OCc1c2ccccc2cc2ccc3ccccc3c12, the mutagenic call (Test System: AMES SALMONELLA TYPHIMURIUM, Strain/Indicator: TA98, Metabolic Activation: NONE, Method: STANDARD PLATE) was “active; positive” and the mutagenic call [1] was “active; positive”.
For CCOC(=O)CCl, the mutagenic call (Test System: AMES SALMONELLA TYPHIMURIUM, Strain/Indicator: TA102, Metabolic Activation: NONE, Method: STANDARD PLATE) was “inactive; negative”, the mutagenic call (Test System: AMES SALMONELLA TYPHIMURIUM, Strain/Indicator: TA2638, Metabolic Activation: NONE, Method: STANDARD PLATE) was “inactive; negative” and the mutagenic call (Test System: E. COLI, Strain/Indicator: WP2 (PKM101), Metabolic Activation: NONE, Method: STANDARD PLATE) was “inactive; negative”. The mutagenic call (Test System: E. COLI, Strain/Indicator: WP2 UVRA (PKM101), Metabolic Activation: NONE, Method: STANDARD PLATE) was “inactive; negative”.
CCc1cc(Cc2cc(C)c(N)c(CC)c2)cc(C)c1N was tested, and the mutagenic call (Test System: AMES SALMONELLA TYPHIMURIUM, Strain/Indicator: TA98, Metabolic Activation: RAT, LIVER, S-9, AROCLOR 1254, Method: STANDARD PLATE) was “inactive; negative” and the mutagenic call (Test System: AMES SALMONELLA TYPHIMURIUM, Strain/Indicator: TA100, Metabolic Activation: RAT, LIVER, S-9, AROCLOR 1254, Method: STANDARD PLATE) was “inactive; negative”.
For Cc1ccc(S(=O)(=O)N2C3c4ccccc4-c4ccccc4C32)cc1 (centres undefined), the mutagenic call [1] was “active; positive”.
With CC(C)CCC[C@@H](C)[C@H]1CC[C@H]2[C@@H]3C[C@H]4O[C@]45C[C@@H](O)CC[C@]5(C)[C@H]3CC[C@]12C the mutagenic call (Test System: CHINESE HAMSTER V-79, Strain/Indicator: V-79/6-THIOGUANINE, Metabolic Activation: NONE) was “active; positive” and the mutagenic call (Test System: CHINESE HAMSTER V-79, Strain/Indicator: V-79/OUABAIN, Metabolic Activation: NONE) was “inactive; negative”.
For CCN(CC)c1ccc2cc(-c3nc4ccccc4n3C)c(=O)oc2c1, the mutagenic call (Test System: AMES SALMONELLA TYPHIMURIUM, Strain/Indicator: TA1538, Metabolic Activation: NONE, Method: STANDARD PLATE) was “inactive; negative” and the mutagenic call (Test System: AMES SALMONELLA TYPHIMURIUM, Strain/Indicator: TA1538, Metabolic Activation: RAT, LIVER, S-9, AROCLOR 1254, Method: STANDARD PLATE) was “inactive; negative”.
For C[C@H]1CCC/C=C/[C@@H]2C[C@H](O)C[C@H]2[C@H](O)/C=C/C(=O)O1, the mutagenic call (Test System: Mouse lymphoma, Strain/Indicator: L5178Y (tk+/tk-), Metabolic Activation: None, Method: Suspension/plate) was “inactive; negative” and the mutagenic call (Test System: Mouse lymphoma, Strain/Indicator: L5178Y (tk+/tk-), Metabolic Activation: Rat, Liver, S-9, Aroclor 1254, Method: Suspension/plate) was “equivocal”.
For COc1cccc2cccnc12, the mutagenic call (Test System: AMES SALMONELLA TYPHIMURIUM, Strain/Indicator: TA100, Metabolic Activation: S-9, Method: PREINCUBATION) was “inactive; negative”.
FC(F)(F)C(Cl)Br (centres undefined) was tested, and the mutagenic call (End Point: IN VITRO CHROMOSOMAL ABERRATIONS, Test System: CHINESE HAMSTER OVARY CELLS, Metabolic Activation: NONE) was “inactive; negative”, the mutagenic call (End Point: IN VITRO CHROMOSOMAL ABERRATIONS, Test System: CHINESE HAMSTER OVARY CELLS, Metabolic Activation: RAT, LIVER, S-9, AROCLOR 1254) was “inactive; negative” and the mutagenic call (Test System: AMES SALMONELLA TYPHIMURIUM, Strain/Indicator: TA98, Metabolic Activation: HAMSTER, LIVER, S-9, AROCLOR 1254 (10%), Method: PREINCUBATION) was “inactive; negative”. For the same compound, the mutagenic call [2] was “inactive; negative”, the mutagenic call (Test System: AMES SALMONELLA TYPHIMURIUM, Strain/Indicator: TA98, Metabolic Activation: RAT, LIVER, S-9, AROCLOR 1254 (10%), Method: PREINCUBATION) was “inactive; negative” and the mutagenic call (Test System: AMES SALMONELLA TYPHIMURIUM, Strain/Indicator: TA100, Metabolic Activation: HAMSTER, LIVER, S-9, AROCLOR 1254 (10%), Method: PREINCUBATION) was “inactive; negative”. For the same compound, the mutagenic call [3] was “inactive; negative”, the mutagenic call (Test System: AMES SALMONELLA TYPHIMURIUM, Strain/Indicator: TA100, Metabolic Activation: RAT, LIVER, S-9, AROCLOR 1254 (10%), Method: PREINCUBATION) was “inactive; negative” and the mutagenic call (Test System: AMES SALMONELLA TYPHIMURIUM, Strain/Indicator: TA1535, Metabolic Activation: HAMSTER, LIVER, S-9, AROCLOR 1254 (10%), Method: PREINCUBATION) was “inactive; negative”. The mutagenic call [4] was “inactive; negative”, the mutagenic call (Test System: AMES SALMONELLA TYPHIMURIUM, Strain/Indicator: TA1535, Metabolic Activation: RAT, LIVER, S-9, AROCLOR 1254 (10%), Method: PREINCUBATION) was “inactive; negative” and the mutagenic call (Test System: AMES SALMONELLA TYPHIMURIUM, Strain/Indicator: TA1537, Metabolic Activation: HAMSTER, LIVER, S-9, AROCLOR 1254 (10%), Method: PREINCUBATION) was “inactive; negative”. The mutagenic call [5] was “inactive; negative” and the mutagenic call (Test System: AMES SALMONELLA TYPHIMURIUM, Strain/Indicator: TA1537, Metabolic Activation: RAT, LIVER, S-9, AROCLOR 1254 (10%), Method: PREINCUBATION) was “inactive; negative”.
For CC(/C=C(/C#N)c1ccc(F)cc1)C(c1ccccc1)C(C#N)c1ccc(F)cc1 (centres undefined), the mutagenic call [1] was “inactive; negative”.
In the case of Fc1cc2cccnc2c2cccnc12, the mutagenic call (Test System: AMES SALMONELLA TYPHIMURIUM, Strain/Indicator: TA100, Metabolic Activation: RAT, LIVER, S-9, PHENOBARBITAL AND 5,6-BENZOFLAVONE, Method: PREINCUBATION) is reported as “active; positive”.
For Cc1cc2c(c3cc4ccccc4cc13)C=C[C@H](O)[C@H]2O, the mutagenic call (Test System: AMES SALMONELLA TYPHIMURIUM, Strain/Indicator: TA100, Metabolic Activation: RAT, LIVER, S-9, AROCLOR 1254, Method: PREINCUBATION) was “active; positive”.
For CCCCCCCCC, the mutagenic call (Test System: AMES SALMONELLA TYPHIMURIUM, Strain/Indicator: TA97, Metabolic Activation: HAMSTER, LIVER, S-9, AROCLOR 1254 (10 OR 30%), Method: PREINCUBATION) was “inactive; negative”, the mutagenic call (Test System: AMES SALMONELLA TYPHIMURIUM, Strain/Indicator: TA97, Metabolic Activation: NONE, Method: PREINCUBATION) was “inactive; negative” and the mutagenic call (Test System: AMES SALMONELLA TYPHIMURIUM, Strain/Indicator: TA97, Metabolic Activation: RAT, LIVER, S-9, AROCLOR 1254 (10 OR 30%), Method: PREINCUBATION) was “inactive; negative”. For the same compound, the mutagenic call (Test System: AMES SALMONELLA TYPHIMURIUM, Strain/Indicator: TA98, Metabolic Activation: HAMSTER, LIVER, S-9, AROCLOR 1254 (10 OR 30%), Method: PREINCUBATION) was “inactive; negative”, the mutagenic call [2] was “inactive; negative” and the mutagenic call (Test System: AMES SALMONELLA TYPHIMURIUM, Strain/Indicator: TA98, Metabolic Activation: RAT, LIVER, S-9, AROCLOR 1254 (10 OR 30%), Method: PREINCUBATION) was “inactive; negative”. For the same compound, the mutagenic call (Test System: AMES SALMONELLA TYPHIMURIUM, Strain/Indicator: TA100, Metabolic Activation: HAMSTER, LIVER, S-9, AROCLOR 1254 (10 OR 30%), Method: PREINCUBATION) was “inactive; negative”, the mutagenic call [3] was “inactive; negative” and the mutagenic call (Test System: AMES SALMONELLA TYPHIMURIUM, Strain/Indicator: TA100, Metabolic Activation: RAT, LIVER, S-9, AROCLOR 1254 (10 OR 30%), Method: PREINCUBATION) was “inactive; negative”. The mutagenic call (Test System: AMES SALMONELLA TYPHIMURIUM, Strain/Indicator: TA1535, Metabolic Activation: HAMSTER, LIVER, S-9, AROCLOR 1254 (10 OR 30%), Method: PREINCUBATION) was “inactive; negative”, the mutagenic call [4] was “inactive; negative” and the mutagenic call (Test System: AMES SALMONELLA TYPHIMURIUM, Strain/Indicator: TA1535, Metabolic Activation: RAT, LIVER, S-9, AROCLOR 1254 (10 OR 30%), Method: PREINCUBATION) was “inactive; negative”. For the same compound, the mutagenic call (Test System: AMES SALMONELLA TYPHIMURIUM, Strain/Indicator: TA1537, Metabolic Activation: HAMSTER, LIVER, S-9, AROCLOR 1254 (30%), Method: PREINCUBATION) was “inactive; negative”, the mutagenic call [5] was “inactive; negative” and the mutagenic call (Test System: AMES SALMONELLA TYPHIMURIUM, Strain/Indicator: TA1537, Metabolic Activation: RAT, LIVER, S-9, AROCLOR 1254 (30%), Method: PREINCUBATION) was “inactive; negative”.
